Data published in patent US8273890B2 (4SC AG, priority 2007, dated 2012).
pIC50: −log10 of the molar value.

Each molecule was assayed against T1, recombinant Plk1 protein (Homo sapiens, UniProt P53350) (assay: Plk1 kinase activity inhibition assay (33P-ATP, alpha casein substrate, flash plates)). Conditions: enzymatic assay, 100 nM Li-ATP, 80 minutes at 30° C.
T1 construct: histidine tag (N); made in house; host or cells: SF9 insect cells
Type: biochemical
Outline: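 N-terminally His-tagged human Plk1 from SF9 cells (50–100 ng/well) phosphorylated alpha casein (500 ng/well) with 100 nM ATP including 33P-ATP at pH 7.5, with Mg2+ and Mn2+, 80 min at 30 °C. 33P incorporation read on scintillator-coated flash plates; IC50 derived.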

T1 sequence (P53350 whole entry): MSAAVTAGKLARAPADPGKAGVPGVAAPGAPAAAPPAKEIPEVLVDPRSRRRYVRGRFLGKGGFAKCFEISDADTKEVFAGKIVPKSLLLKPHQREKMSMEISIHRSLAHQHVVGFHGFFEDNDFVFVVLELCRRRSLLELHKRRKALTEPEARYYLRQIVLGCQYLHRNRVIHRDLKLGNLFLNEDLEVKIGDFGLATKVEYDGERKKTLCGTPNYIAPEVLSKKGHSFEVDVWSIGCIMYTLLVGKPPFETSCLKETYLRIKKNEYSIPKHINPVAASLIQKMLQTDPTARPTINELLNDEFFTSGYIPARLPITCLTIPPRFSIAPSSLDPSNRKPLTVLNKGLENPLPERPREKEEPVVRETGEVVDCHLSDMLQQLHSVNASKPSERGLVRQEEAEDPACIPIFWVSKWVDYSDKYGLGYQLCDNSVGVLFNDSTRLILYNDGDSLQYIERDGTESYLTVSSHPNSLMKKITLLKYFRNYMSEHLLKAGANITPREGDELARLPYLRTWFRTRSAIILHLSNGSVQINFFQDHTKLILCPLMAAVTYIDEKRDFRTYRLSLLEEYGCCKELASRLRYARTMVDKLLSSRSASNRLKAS

| pIC50 | SMILES |
| --- | --- |
| > 8.00 | C[C@@H](Oc1cc(-n2cnc3cnc(CO)cc32)sc1C(N)=O)c1ccccc1Br [Example 52, 3-[(1R)-1-(2-bromophenyl)ethoxy]-5-[6-(hydroxymethyl)-1H-imidazo[4,5-c]pyridin-1-yl]thiophene-2-carboxamide] |
| > 8.00 | NC(=O)c1sc(-n2cnc3cnccc32)cc1OCc1ccccc1OC(F)F [Example 42, 3-{[2-(difluoromethoxy)benzyl]oxy}-5-(1H-imidazo[4,5-c]pyridin-1-yl)thiophene-2-carboxamide] |
| 6.00 to 7.00 | NC(=O)c1sc(-n2cnc3cc(CO)ncc32)cc1OCc1ccccc1C(F)(F)F [Example 10, 5-[6-(Hydroxymethyl)-3H-imidazo[4,5-c]pyridin-3-yl]-3-{[2-(trifluoromethyl)benzyl]oxy}thiophene-2-carboxamide] |
| > 8.00 | C[C@@H](Oc1cc(-n2cnc3cnc(CN4CCN(C(=O)N(C)C)CC4)cc32)sc1C(N)=O)c1ccccc1C(F)(F)F [Example 68, 4-{[1-(5-carbamoyl-4-{(1R)-1-[2-(trifluoromethyl)phenyl]ethoxy}-2-thienyl)-1H-imidazo[4,5-c]pyridin-6-yl]methyl}-N,N-dimethylpiperazine-1-carboxamide] |
| 7.00 to 8.00 | COc1cc2c(cn1)ncn2-c1cc(OCc2ccccc2C(F)(F)F)c(C(=O)O)s1 [Example 18, 5-(6-Methoxy-1H-imidazo[4,5-c]pyridin-1-yl)-3-{[2-(trifluoromethyl)benzyl]oxy}thiophene-2-carboxylic acid] |
| 7.00 to 8.00 | CC(Oc1cc(-n2cnc3ccncc32)sc1C(N)=O)c1ccccc1C(F)(F)F (stereo not shown) [Example 13, 5-(3H-Imidazo[4,5-c]pyridin-3-yl)-3-{1-[2-(trifluoromethyl)phenyl]ethoxy}thiophene-2-carboxamide] |
| 6.00 to 7.00 | NC(=O)c1sc(-n2cnc3ccncc32)cc1OCc1ccccc1C(F)(F)F [Example 3, 5-(3H-Imidazo[4,5-c]pyridin-3-yl)-3-{[2-(trifluoromethyl)benzyl]oxy}thio-phene-2-carboxamide] |
| > 8.00 | C=CCN1CCN(Cc2cc3c(cn2)ncn3-c2cc(O[C@H](C)c3ccccc3C(F)(F)F)c(C(N)=O)s2)CC1 [Example 122, 5-{6-[(4-allylpiperazin-1-yl)methyl]-1H-imidazo[4,5-c]pyridin-1-yl}-3-{(1R)-1-[2-(trifluoromethyl)phenyl]ethoxy}thiophene-2-carboxamide] |
| 7.00 to 8.00 | CC1CN(Cc2cc3c(cn2)ncn3-c2cc(O[C@H](C)c3ccccc3C(F)(F)F)c(C(N)=O)s2)C(C)CN1 (stereo partly drawn) [Example 83, 5-{6-[(2,5-dimethylpiperazin-1-yl)methyl]-1H-imidazo[4,5-c]pyridin-1-yl}-3-{(1R)-1-[2-(trifluoromethyl)phenyl]ethoxy}thiophene-2-carboxamide] |
| 7.00 to 8.00 | COc1cc2c(cn1)ncn2-c1cc(OCc2ccccc2C(F)(F)F)c(C(N)=O)s1 [Example 16, 5-(6-Methoxy-1H-imidazo[4,5-c]pyridin-1-yl)-3-{[2-(trifluoromethyl)benzyl]oxy}thiophene-2-carboxamide] |
| > 8.00 | CCN1CCN(Cc2cc3c(cn2)ncn3-c2cc(O[C@H](C)c3ccccc3Cl)c(C(N)=O)s2)CC1 [Example 130, 3-[(1R)-1-(2-chlorophenyl)ethoxy]-5-{6-[(4-ethylpiperazin-1-yl)methyl]-1H-imidazo[4,5-c]pyridin-1-yl}thiophene-2-carboxamide] |
| 7.00 to 8.00 | C[C@@H](Oc1cc(-n2cnc3cc(CN)ncc32)sc1C(N)=O)c1ccccc1C(F)(F)F [Example 50, 5-[6-(aminomethyl)-3H-imidazo[4,5-c]pyridin-3-yl]-3-{(1R)-1-[2-(trifluoromethyl)phenyl]ethoxy}thiophene-2-carboxamide] |
| > 8.00 | C[C@@H](Oc1cc(-n2cnc3cnc(CN4CCN(C)CC4CO)cc32)sc1C(N)=O)c1ccccc1C(F)(F)F (stereo partly drawn) [Example 126, 5-(6-{[2-(hydroxymethyl)-4-methylpiperazin-1-yl]methyl}-1H-imidazo[4,5-c]pyridin-1-yl)-3-{(1R)-1-[2-(trifluoromethyl)phenyl]ethoxy}thiophene-2-carboxamide] |
